Measured values from patent US4000147A, “Anhydro-2-mercapto-1,3,4-thiadiazolium hydroxides” (BASF Aktiengesellschaft, priority 1974, dated 1976).
Read-outs that look alike come from different tables or passages of the source.

Assays:
[1] = tested on: clonic cramps caused by Pentetrazol; test: anti-convulsive action against clonic spasms caused by Pentetrazol (60 mg/kg s.c.), inclined screen (Table 2); format: in vivo, female Swiss mice; details: Mus musculus, mice, oral, 30 minutes before s.c. 60 mg/kg Pentetrazol
Experimental: As a pharmacological test of the anti-convulsive action against clonic spasms caused by Pentetrazol, the test substances were administered orally to groups of from 8 to 10 female Swiss mice weighing from 20 to 25 g, 30 minutes before subcutaneous administration of 60 mg/kg of Pentetrazol.
In the untreated animals, this dose of Pentetrazol caused clonic cramps, as a result of which the mice slid off an inclined screen.
Anti-convulsive agents prevent the cramps and the sliding off the screen, the degree of prevention depending on the dose. The ED50 was taken to be the dose after administration of which 50% of the treated animals remained on the screen.
^1) Action against clonic cramps caused by Pentetrazol in mice. Oral
administration 30 minutes before subcutaneous administration of 60 mg/kg

[2] = acute toxicity, intraperitoneal (Table 2); details: mouse, in vivo, ip, mice, approximate values
Excerpt: ^2) Mice. Intraperitoneal administration. Approximate values

[3] = tested on: maximum Pentetrazol-induced extension; test: maximum tonic extension spasm after subcutaneous administration of 121 mg/kg of Pentetrazol (Table 3); format: in vivo, mice; details: for ED50: Mus musculus, read-out: Maximum Pentetrazol-induced extension, ED50
[4] = tested on: minimum Pentetrazol-induced cramp; test: minimum clonic cramp after subcutaneous administration of 70 mg/kg of Pentetrazol (Table 3); format: in vivo, mice; details: for ED50: Mus musculus, 0.75 h, read-out: Minimum Pentetrazol-induced cramp, ED50
[5] = tested on: maximum electric shock; test: maximum tonic electro-induced cramp (Table 3); format: in vivo, mice; details: for ED50: Mus musculus, read-out: Maximum electric shock, ED50
[6] = in vivo; details: for LD50: mouse, in vivo
Experimental: The comparative experiments in Table 3 were carried out with anhydro-2-mercapto-4-methyl-5-(3'-chlorophenyl)-1,3,4-thiadiazolium hydroxide, referred to as substance A in the Table and in the subsequent text.

[7] = mice, oral, 121 mg/kg Pentetrazol s.c.
[8] = mice, oral, 70 mg/kg Pentetrazol s.c., observed 45 minutes after Pentetrazol
[9] = mice, oral, tonic cramps induced by electric shock

SMILES: C[n+]1nc([S-])sc1-c1ccccc1F
- ED50 [1]: 10 mg/kg
- LD50 [2]: > 1000 mg/kg

SMILES: C[n+]1nc([S-])sc1-c1cccc(F)c1
- ED50 [1]: 2.2 mg/kg
- LD50 [2]: 1000 mg/kg

SMILES: C[n+]1nc([S-])sc1-c1ccc(F)cc1
- ED50 [1]: 2.2 mg/kg
- LD50 [2]: > 1000 mg/kg

SMILES: C[n+]1nc([S-])sc1-c1ccc(Br)cc1
- ED50 [1]: 46 mg/kg
- LD50 [2]: > 1000 mg/kg

SMILES: CCC[n+]1nc([S-])sc1-c1ccc(Cl)cc1
- ED50 [1]: 32 mg/kg
- LD50 [2]: 681 mg/kg

SMILES: CCC[n+]1nc([S-])sc1-c1ccccc1
- ED50 [1]: 22 mg/kg
- LD50 [2]: 68.1 mg/kg

SMILES: C[n+]1nc([S-])sc1-c1cccc(C(F)(F)F)c1
- ED50 [1]: 0.46 mg/kg
- LD50 [2]: 681 mg/kg

SMILES: CCC1(c2ccccc2)C(=O)NC(=O)NC1=O [Phenobarbital]
- ED50 ([3]; po): 22 mg/kg
- activity in tonic cramp induced by Pentetrazol, relative to substance A ([3]; in words): about twice as active
- ED50 ([4]; po): 30 mg/kg
- ED50 ([5]; po): 11 mg/kg
- activity in cramp induced by electric shock, relative to substance A ([5]; in words): about twice as active
- LD50 [6]: 320 mg/kg

SMILES: O=C1NC(=O)C(c2ccccc2)(c2ccccc2)N1 [Phenytoin]
- ED50 [3, 7]: 22 mg/kg
- activity against clonic spasms induced by Pentetrazol ([4]; in words): inactive
- Minimum Pentetrazol-induced cramp, ED50 [4, 8]: inactive
- ED50 [5, 9]: 8 mg/kg

SMILES: C[n+]1nc([S-])sc1-c1cccc(Cl)c1 [Substance A, anhydro-2-mercapto-4-methyl-5-(3'-chlorophenyl)-1,3,4-thiadiazolium hydroxide]
- ED50 [3, 7]: 10 mg/kg
- ED50 [4, 8]: 7 mg/kg
- activity in counteracting clonic spasms induced by Pentetrazol, compared with Phenobarbital and Phenytoin ([4]; in words): more active in counteracting clonic spasms induced by Pentetrazol than is Phenobarbital and above all than is Phenytoin
- ED50 [5, 9]: 23 mg/kg
- toxicity compared with Phenobarbital and Phenytoin ([6]; in words): markedly less than that of Phenobarbital and Phenytoin
- LD50 [6]: > 1000 mg/kg

SMILES: CN1C(=O)OC(C)(C)C1=O [Trimethadion]
- ED50 [3, 7]: 260 mg/kg
- times less active than substance A, tonic cramp test ([3]; tonic cramp test): more than 20 times
- ED50 [4, 8]: 240 mg/kg
- times less active than substance A, clonic cramp test ([4]; clonic cramp test): more than 20 times
- ED50 [5, 9]: 450 mg/kg
- LD50 [6]: > 1000 mg/kg

SMILES: C[n+]1nc([S-])sc1-c1cccc(Cl)c1 [drawing 15]
- ED50 [1]: 3.2 mg/kg
- LD50 [2]: > 1000 mg/kg
